# PubChem BioAssay AID1208 (EPA DSSTox, 2008)
# Activity calls are given as the source filed them.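 Rule for the calls: active = at least one rat sex group has a carcinogenic potency value and tumor site recorded; inconclusive = only rat studies were judged inadequate by the national testing program; inactive = no potency or tumor site, with negative rat experiments.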
# Test system: rat chronic carcinogenicity bioassay, TD50
# Test: DSSTox (CPDBAS) Carcinogenic Potency Database Summary Rat Bioassay Results
# Settings: for Potency: stronger effect = lower value
# How it was run: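 The activity score maps log10(1/TD50_Rat_mmol) linearly onto 1–100; actives without a computed TD50, such as mixtures, receive 50. Source data are chronic rat carcinogenicity tests, using the most positive experiment for each sex.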
# [1] = TD50_Rat_Note: no positive results, TargetSites_Rat_Female: no positive results
# [2] = TD50_Rat_Note: no positive results
# [3] = TD50_Rat_Note: only experiment is NCI/NTP bioassay inadequate, TargetSites_Rat_Female: NTP bioassay inadequate
# [4] = TargetSites_Rat_Female: no positive results
structure (smiles),measurement,setting,value
C=CCOC(=O)c1ccccc1C(=O)OCC=C,outcome,[1],inactive; no positive results
CN[C@@H](C)[C@H](O)c1ccccc1,outcome,[1],inactive; no positive results
CC(C)=CCC/C(C)=C/C=O,outcome,[1],inactive; no positive results
O=Cc1ccccc1,outcome,[1],inactive; no positive results
C=O,Potency,"TD50_Rat_Note: TD50 is harmonic mean of more than one positive test, greater than ten-fold variation among TD50 values for positive res, TargetSites_Rat_Female: hematopoietic system, nasal cavity",1.35 mg/kg/day
CCOc1ccc(NC(C)=O)cc1[N+](=O)[O-],outcome,[1],inactive; no positive results
OC[C@@H](O)[C@@H](O)[C@H](O)[C@H](O)CO,outcome,[1],inactive; no positive results
CCC[CH2][Sn]([CH2]CCC)([CH2]CCC)[O][Sn]([CH2]CCC)([CH2]CCC)[CH2]CCC,outcome,[1],inactive; no positive results
ClC(Br)Br,outcome,[1],inactive; no positive results
O=C1OC(C(O)CO)C(O)=C1O (stereo not drawn),outcome,[2],inactive; no positive results
Cc1ccc(Cc2cnc(NCCSCc3ccc(CN(C)C)o3)[nH]c2=O)cn1,Potency,"TD50_Rat_Note: TD50 is harmonic mean of more than one positive test, TargetSites_Rat_Female: stomach",3360 mg/kg/day
CN(N=O)C(=O)Nc1nc2ccccc2s1,Potency,TargetSites_Rat_BothSexes: stomach,1.13 mg/kg/day
CC#N,outcome,[1],inactive; no positive results
Clc1cc(Cl)cc(-c2cc(Cl)cc(Cl)c2)c1,outcome,[1],inactive
[O-][Cl+]O,outcome,[1],inactive; no positive results
CC1CN(N=O)CC(C)N1C(=O)c1ccccc1 (stereo not drawn),Potency,TargetSites_Rat_Female: stomach,9.66 mg/kg/day
O=CC1CO1 (stereo not drawn),outcome,[1],inactive
CCSCC[C@H](N)C(=O)O,Potency,"TD50_Rat_Note: TD50 value is overestimated as upper 99% confidence limit from study with 100% tumor incidence but no lifetable, harmoni",4.97 mg/kg/day
CNC[C@H](O)c1ccc(O)c(O)c1,outcome,[3],ntp bioassay inadequate
ClC1=C(Cl)C2(Cl)C3C(Cl)C=CC3C1(Cl)C2(Cl)Cl (stereo not drawn),outcome,[1],inactive; no positive results
Nc1ccc2cc3ccc(N)cc3nc2c1,outcome,[3],ntp bioassay inadequate
NC(=O)c1cnccn1,outcome,[1],inactive; no positive results
O=c1cc[nH]c(=O)[nH]1,Potency,"TD50_Rat_Note: TD50 is harmonic mean of more than one positive test, greater than ten-fold variation among TD50 values for positive res, TargetSites_Rat_Female: urinary bladder",671 mg/kg/day
C=CCN(CC(O)CO)N=O (stereo not drawn),Potency,"TargetSites_Rat_Female: esophagus, nasal cavity",0.825 mg/kg/day
CC(=O)NCc1nc(-c2ccc([N+](=O)[O-])o2)no1,Potency,"TD50_Rat_Note: no positive results are statistically significant, TargetSites_Rat_Female: kidney, lung",59.6 mg/kg/day
c1ccc2[nH]c(-c3cscn3)nc2c1,outcome,[1],inactive; no positive results
CCC[CH2][Sn]([CH2]CCC)([O]C(C)=O)[O]C(C)=O,outcome,"TD50_Rat_Note: no positive results, TargetSites_Rat_Female: NTP bioassay inadequate",inactive; no positive results
Cc1cc(O)c(C(C)(C)C)cc1Sc1cc(C(C)(C)C)c(O)cc1C,outcome,[1],inactive; no positive results
CC(Cl)Cl,outcome,[1],inactive; no positive results
O=S(=O)(O)O,Potency,"TD50_Rat_Note: TD50 is harmonic mean of more than one positive test, TargetSites_Rat_Female: lung",40.8 mg/kg/day
COc1cc(NC(=O)C(N=Nc2ccc(-c3ccc(N=NC(C(C)=O)C(=O)Nc4cc(OC)c(Cl)cc4OC)c(Cl)c3)cc2Cl)C(C)=O)c(OC)cc1Cl (stereo not drawn),outcome,"TD50_Rat_Note: no positive results, TargetSites_Rat_BothSexes: no positive results",inactive
C[C@]12C=CC(=O)C=C1CC[C@@H]1[C@@H]2[C@@H](O)C[C@@]2(C)[C@H]1CC[C@]2(O)C(=O)CO,Potency,[4],1.53 mg/kg/day
FC(F)(Cl)C(F)(Cl)Cl,outcome,[1],inactive; no positive results
CCOP(=O)=O.CCOP(=O)=O.CCOP(=O)=O.[Al+3],Potency,[4],3660 mg/kg/day
CCC1CO1 (stereo not drawn),Potency,[4],220 mg/kg/day
CC(C)(C)O,Potency,[4],64.6 mg/kg/day
Cc1nc(N)cc2[nH]c3ccccc3c12,Potency,"TD50_Rat_Note: TD50 is harmonic mean of more than one positive test, TargetSites_Rat_Female: clitoral gland, hematopoietic system, liver, mammary gland, small intestine, vascular system",6.66 mg/kg/day
Nc1ccc([N+](=O)[O-])cc1O,Potency,[4],111 mg/kg/day
Clc1ccccc1,Potency,[4],247 mg/kg/day
Nc1ccccc1N,Potency,,248 mg/kg/day
COc1ccc([N+](=O)[O-])cc1N,Potency,"TD50_Rat_Note: TD50 is harmonic mean of more than one positive test, TargetSites_Rat_Female: clitoral gland, skin",53.9 mg/kg/day
OC(c1ccc(Cl)cc1)(c1ccc(Cl)cc1)C(Cl)(Cl)Cl,outcome,[1],inactive; no positive results
O=NN1CCCCO1,Potency,TargetSites_Rat_BothSexes: all tumor bearing animals,24.3 mg/kg/day
C=C/C1=C/[C@H](C)[C@](C)(OC(C)=O)C(=O)OCC2=CC[N+]3(C)CC[C@@H](OC1=O)C23[O-] (stereo partly drawn),Potency,"TargetSites_Rat_BothSexes: liver, vascular system",0.5 mg/kg/day
CCN=[N+]([O-])CC,Potency,,0.022 mg/kg/day
CC(O)CO (stereo not drawn),outcome,[1],inactive; no positive results
CCCCC(CC)CO (stereo not drawn),outcome,[1],inactive; no positive results
NC(Cc1c[nH]c2ccccc12)C(=O)O (stereo not drawn),outcome,[2],inactive; no positive results
